Reference: patent publication US11969419B2, “Method of treating cancer” (Exelixis, Inc., priority 2010, dated 2024)

Key:
tumor cells = conditions: cited from earlier work
[1] = system: castration-resistant prostate cancer (CRPC) with bone metastases; assay: Adaptive phase 2 trial (NCT00940225), case studies of the first three CRPC patients with bone metastases, Compound 1 100 mg; assay type: in vivo, human; conditions: for Bone scan (best response) / Pain (best response): preliminary best response
Experimental: In 2000, local disease recurrence was treated with radiation therapy. […] CAB with leuprolide and bicalutanide was initiated. […] All patients provided informed consent before study screening.

xenograft tumor models = conditions: cited from earlier work
[2] = system: pancreatic neuroendocrine tumor model; conditions: murine pancreatic neuroendocrine tumor model; cited from earlier work
endothelial cells = conditions: cited from earlier work
[3] = phase 1 clinical study; cited from earlier work
[4] = three metastatic CRPC patients, summary

## COc1cc2nccc(Oc3ccc(NC(=O)C4(C(=O)Nc5ccc(F)cc5)CC4)cc3)c2cc1OC [Compound 1, N-(4-{[6,7-bis(methyloxy)quinolin-4-yl]oxy}phenyl)-N′-(4-fluorophenyl)cyclopropane-1,1-dicarboxamide]
Tumor cells
  Apoptosis of tumor cells: rapidly induces apoptosis
[1]; Patient 1, Week 6
  Bone scan: radiotracer uptake by bone metastases: dramatic decrease in radiotracer uptake
  CT scan response category: partial response (PR)
  CT scan: decrease in measurable target lesions: 33%
[1]; Patient 1, Week 12, stable through Week 18
  Bone lesions on bone scan: near complete resolution of bone lesions
[1]; Patient 1, Week 18
  Adverse event leading to withdrawal: Grade 3 diarrhea
[1]; Patient 1, four weeks after start
  Bone pain: significant reduction in bone pain
[1]; Patient 1
  Bone scan (best response): Complete resolution
  Pain (best response): Improvement
[1]; Patient 2, Week 4
  Bone pain: reduction in bone pain
[1]; Patient 2, Week 6
  Bone scan: radiotracer uptake by bone lesions: slight flair in radiotracer uptake
  CT scan: decrease in target lesions: 13%
[1]; Patient 2, Week 12
  Bone scan: radiotracer uptake: substantial reduction of radiotracer uptake
[1]; Patient 2
  Bone scan (best response): Improvement
  Pain (best response): Pain-free
[1]; Patient 3, Week 6
  Bone scan: radiotracer uptake: dramatic reduction in radiotracer uptake
  CT scan: decrease in measurable target lesions: 43%
[1]; Patient 3, Week 12
  Bone lesions on bone scan: complete resolution of bone lesions
[1]; Patient 3, after three weeks
  Pain: complete resolution of pain
[1]; Patient 3
  Bone scan (best response): Near resolution
  Pain (best response): Pain-free
[1]; all three patients, discussion
  Bone pain: substantial reductions in bone pain
  Soft tissue lesions: response or stabilization
  Uptake of radiotracer on bone scan: striking decrease
[1]; [4]
  Bone lesions: near complete resolution of bone lesions
  Bone pain: marked reduction
  Measurable disease: reduction in measurable disease
  Total serum alkaline phosphatase (tALP) levels: marked reduction
Xenograft tumor models
  Tumor regression: causes tumor regression
[2]
  Overall survival: substantially improves
  Tumor invasiveness and metastasis: significantly reduces
Endothelial cells
  Apoptosis of endothelial cells: rapidly induces apoptosis
[3]
  Most commonly observed adverse events: fatigue, diarrhea, anorexia, rash, and palmar-plantar erythrodysesthesia
  Tolerability: generally well-tolerated
